Paper PMC6934184, “Selective DNA-PKcs inhibition extends the therapeutic index of localized radiotherapy and chemotherapy” (The Journal of Clinical Investigation, 2019)

Target: T1, ITK (Homo sapiens, UniProt Q08881)
T1 construct: purchased Thermo Fisher Scientific (Life Technologies) SelectScreen
Test: SelectScreen Z'LYTE
Assay type: biochemical
Outline: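 NU5455 was profiled across the SelectScreen Broad panel of kinase activity and binding assays. Z'LYTE reactions such as CSF1R ran at apparent Km ATP, while the Adapta CAMK1 assay used ATP listed as 10. Values are given as percent.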

T1 sequence (Q08881 whole entry): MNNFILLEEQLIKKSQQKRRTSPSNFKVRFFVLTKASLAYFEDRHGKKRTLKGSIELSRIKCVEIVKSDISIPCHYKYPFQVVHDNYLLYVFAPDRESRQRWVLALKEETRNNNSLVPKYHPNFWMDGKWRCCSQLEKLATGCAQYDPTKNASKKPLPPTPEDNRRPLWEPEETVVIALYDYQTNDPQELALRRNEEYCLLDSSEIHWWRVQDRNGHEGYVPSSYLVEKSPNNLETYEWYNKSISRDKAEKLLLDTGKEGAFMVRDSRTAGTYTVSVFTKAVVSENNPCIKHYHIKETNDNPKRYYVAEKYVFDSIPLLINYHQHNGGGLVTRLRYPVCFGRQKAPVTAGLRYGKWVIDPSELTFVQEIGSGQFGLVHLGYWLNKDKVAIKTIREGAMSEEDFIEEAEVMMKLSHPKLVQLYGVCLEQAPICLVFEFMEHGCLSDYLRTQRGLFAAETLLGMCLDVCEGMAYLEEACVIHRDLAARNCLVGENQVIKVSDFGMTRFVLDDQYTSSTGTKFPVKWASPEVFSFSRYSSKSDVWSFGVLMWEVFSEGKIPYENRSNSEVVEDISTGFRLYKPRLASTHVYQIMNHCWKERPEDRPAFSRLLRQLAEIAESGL

`CN(C(=O)CN1CCOCC1)c1ccc2sc3c(-c4cccc5c(=O)cc(N6CC7CCC(C6)O7)oc45)cccc3c2c1` [NU5455] was tested, and the inhibition at 1 µM was 5.5%.
